Target: HTR4 (Homo sapiens, UniProt Q13639)
Details: agonist; pH 7.0, 30 °C

Chain of HTR4 (Q13639 whole entry): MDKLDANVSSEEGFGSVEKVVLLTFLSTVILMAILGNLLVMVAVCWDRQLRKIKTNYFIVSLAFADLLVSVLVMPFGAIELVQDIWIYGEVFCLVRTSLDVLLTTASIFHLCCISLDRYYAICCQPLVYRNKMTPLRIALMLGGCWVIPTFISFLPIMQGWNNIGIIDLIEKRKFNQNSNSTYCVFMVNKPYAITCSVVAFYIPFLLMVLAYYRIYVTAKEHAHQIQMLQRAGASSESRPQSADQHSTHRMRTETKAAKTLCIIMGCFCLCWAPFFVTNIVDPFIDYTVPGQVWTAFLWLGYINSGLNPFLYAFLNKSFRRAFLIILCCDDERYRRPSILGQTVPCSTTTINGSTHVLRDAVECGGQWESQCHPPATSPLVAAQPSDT

Question: For `NCCc1c[nH]c2ccccc12` [tryptamine], which EC50 is on record?
Answer: tryptamine agonism of HTR4 and ADRA2B
